From patent US20080132505A1 (Glaxo Group Limited, priority 2004, published 2008)
Like-named read-outs stand apart in the source and are kept apart here.

Target: human cannabinoid CB2 receptor (Homo sapiens, UniProt P34972)
Test: Cannabinoid CB2 receptor agonist activity (yeast reporter assay, FDGlu fluorescence)
Type: cell-based
Conditions: for Emax: read-out: efficacy value (Emax relative to HU210) at the cloned human cannabinoid CB2 receptor
Outline: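 S. cerevisiae MMY23 expressing human CB2 with a Gpa1/Gαi3 chimeric G-protein, grown 24 h at 30 °C with agonist (1% DMSO) in selective media containing 10 mM 3-aminotriazole and FDGlu, pH 7.0. Fluorescein fluorescence (485/535 nm) fitted by four-parameter curve; Emax and EMR relative to HU210.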

[1] = EC50 value at the cloned human cannabinoid CB2 receptor

Sequence of human cannabinoid CB2 receptor (P34972 whole entry): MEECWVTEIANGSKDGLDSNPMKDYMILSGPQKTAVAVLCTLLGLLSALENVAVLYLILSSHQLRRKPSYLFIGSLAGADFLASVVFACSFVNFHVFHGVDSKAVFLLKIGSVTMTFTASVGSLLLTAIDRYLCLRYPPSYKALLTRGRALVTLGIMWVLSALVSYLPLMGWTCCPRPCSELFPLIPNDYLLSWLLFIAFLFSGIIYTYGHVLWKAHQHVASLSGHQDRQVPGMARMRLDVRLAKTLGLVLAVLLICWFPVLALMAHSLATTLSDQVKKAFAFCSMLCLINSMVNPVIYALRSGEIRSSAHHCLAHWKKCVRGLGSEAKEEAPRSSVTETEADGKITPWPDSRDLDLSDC

| Compound | EC50 [1] [nM] | Emax [%] | EC50 (read-out: EC50 value at the cloned human cannabinoid CB2 receptor) [nM] |
| --- | --- | --- | --- |
| O=C(NCC1CCOCC1)c1cnc(Nc2cc(Br)cc(C(F)(F)F)c2)nc1C(F)(F)F [Example 179, 2-(3-Bromo-5-(trifluoromethyl)phenylamino)-4-trifluoromethyl-pyrimidine-5-carboxylic acid (tetrahydropyran-4-ylmethyl)-amide] | 20 to 300 | > 50 |  |
| O=C(NCC1CCOCC1)c1cnc(Nc2cc(F)cc(C(F)(F)F)c2)nc1C(F)(F)F [Example 180, 2-(3-Fluoro-5-(trifluoromethyl)phenylamino)-4-trifluoromethyl-pyrimidine-5-carboxylic acid (tetrahydropyran-4-ylmethyl)-amide] | 20 to 300 | > 50 |  |
| O=C(NCC1CCOCC1)c1cnc(Nc2cccc(C(F)(F)F)c2F)nc1C(F)(F)F [Example 181, 2-(2-Fluoro-3-(trifluoromethyl)phenylamino)-4-trifluoromethyl-pyrimidine-5-carboxylic acid (tetrahydropyran-4-ylmethyl)-amide] | 20 to 300 | > 50 |  |
| CSc1c(Nc2ncc(C(=O)NCC3CCOCC3)c(C(F)(F)F)n2)cccc1C(F)(F)F [Example 182, 2-(2-Methylthio-3-(trifluoromethyl)phenylamino)-4-trifluoromethyl-pyrimidine-5-carboxylic acid (tetrahydropyran-4-ylmethyl)-amide] | 20 to 300 | > 50 |  |
| Cc1ccc(Cl)cc1Nc1ncc(C(=O)NCC2CCCC2)c(C(F)(F)F)n1 [Example 183, 2-(5-Chloro-2-methylphenylamino)-4-trifluoromethyl-pyrimidine-5-carboxylic acid (cyclopentylmethyl)-amide] | 20 to 300 | > 50 |  |
| Cc1ccc(Nc2ncc(C(=O)NCC3CCOCC3)c(C(F)(F)F)n2)cc1Cl [Example 184, 2-(3-Chloro-4-methylphenylamino)-4-trifluoromethyl-pyrimidine-5-carboxylic acid (tetrahydropyran-4-ylmethyl)-amide] | 20 to 300 | > 50 |  |
| Cc1c(Cl)cccc1Nc1ncc(C(=O)NCC2CCOCC2)c(C(F)(F)F)n1 [Example 185, 2-(3-Chloro-2-methylphenylamino)-4-trifluoromethyl-pyrimidine-5-carboxylic acid (tetrahydropyran-4-ylmethyl)-amide] | 20 to 300 | > 50 |  |
| COc1cc(Nc2ncc(C(=O)NCC3CCOCC3)c(C(F)(F)F)n2)ccc1Cl [Example 186, 2-(4-Chloro-3-methoxyphenylamino)-4-trifluoromethyl-pyrimidine-5-carboxylic acid (tetrahydropyran-4-ylmethyl)-amide] | 20 to 300 | > 50 |  |
| Cc1cc(Nc2ncc(C(=O)NCC3CCOCC3)c(C(F)(F)F)n2)ccc1Cl [Example 187, 2-(4-Chloro-3-methylphenylamino)-4-trifluoromethyl-pyrimidine-5-carboxylic acid (tetrahydropyran-4-ylmethyl)-amide] | 20 to 300 | > 50 |  |
| CN(CC1CCC1)C(=O)c1cnc(Nc2cccc(Cl)c2)nc1C(F)(F)F [Example 188, 2-(3-Chlorophenylamino)-4-trifluoromethyl-pyrimidine-5-carboxylic acid cyclobutylmethyl-methyl-amide] | 20 to 300 | > 50 |  |
| CN(CC1CCCCC1)C(=O)c1cnc(Nc2cccc(Cl)c2)nc1C(F)(F)F [Example 189, 2-(3-Chlorophenylamino)-4-trifluoromethyl-pyrimidine-5-carboxylic acid cyclohexylmethyl-methyl-amide] | 20 to 300 | > 50 |  |
| CN(CC1CCCC1)C(=O)c1cnc(Nc2cccc(Cl)c2)nc1C(F)(F)F [Example 190, 2-(3-Chlorophenylamino)-4-trifluoromethyl-pyrimidine-5-carboxylic acid cyclopentylmethyl-methyl-amide] | 20 to 300 | > 50 |  |
| O=C(NCC1CCC1)c1cnc(Nc2cc(Cl)ccc2F)nc1C(F)(F)F [Example 191, 2-(5-Chloro-2-fluorophenylamino)-4-trifluoromethyl-pyrimidine-5-carboxylic acid cyclobutylmethyl-amide] | 20 to 300 | > 50 |  |
| O=C(NCC1CCC1)c1cnc(Nc2cc(F)cc(F)c2)nc1C(F)(F)F [Example 192, 2-(3,5-Difluorophenylamino)-4-trifluoromethyl-pyrimidine-5-carboxylic acid cyclobutylmethyl-amide] | 20 to 300 | > 50 |  |
| O=C(NCC1CCC1)c1cnc(Nc2ccc(OC(F)(F)F)c(Cl)c2)nc1C(F)(F)F [Example 193, 2-(3-Chloro-4-trifluoromethoxyphenylamino)-4-trifluoromethyl-pyrimidine-5-carboxylic acid cyclobutylmethyl-amide] | 20 to 300 | > 50 |  |
| O=C(NCC1CCC1)c1cnc(Nc2cccc(Cl)c2F)nc1C(F)(F)F [Example 195, 2-(3-Chloro-2-fluorophenylamino)-4-trifluoromethyl-pyrimidine-5-carboxylic acid cyclobutylmethyl-amide] | 20 to 300 | > 50 |  |
| O=C(NCC1CCC1)c1cnc(Nc2ccc(C(F)(F)F)c(F)c2)nc1C(F)(F)F [Example 196, 2-(3-Fluoro-4-trifluoromethylphenylamino)-4-trifluoromethyl-pyrimidine-5-carboxylic acid cyclobutylmethyl-amide] | 20 to 300 | > 50 |  |

| Compound | EC50 [1] [nM] | Emax [%] | EC50 (read-out: EC50 value at the cloned human cannabinoid CB2 receptor) [nM] |
| --- | --- | --- | --- |
| N#Cc1ccc(Nc2ncc(C(=O)NCC3CCC3)c(C(F)(F)F)n2)cc1Cl [Example 197] |  | > 50 |  |
| O=C(NCC1CCC1)c1cnc(Nc2cccc(F)c2)nc1C(F)(F)F [Example 198, 2-(3-Fluorophenylamino)-4-trifluoromethyl-pyrimidine-5-carboxylic acid cyclobutylmethyl-amide] | 20 to 300 | > 50 |  |
| O=C(NCC1CCC1)c1cnc(Nc2cccc(Br)c2)nc1C(F)(F)F [Example 199, 2-(3-Bromophenylamino)-4-trifluoromethyl-pyrimidine-5-carboxylic acid cyclobutylmethyl-amide] | 20 to 300 | > 50 |  |
| O=C(NCC1CCC1)c1cnc(Nc2cccc(Cl)c2Cl)nc1C(F)(F)F [Example 200, 2-(2,3-Dichlorophenylamino)-4-trifluoromethyl-pyrimidine-5-carboxylic acid cyclobutylmethyl-amide] | 20 to 300 | > 50 |  |
| O=C(NCC1CCC1)c1cnc(Nc2ccc(Cl)cc2Cl)nc1C(F)(F)F [Example 201, 2-(2,4-Dichlorophenylamino)-4-trifluoromethyl-pyrimidine-5-carboxylic acid cyclobutylmethyl-amide] | 20 to 300 | > 50 |  |
| O=C(NCC1CCC1)c1cnc(Nc2cc(Cl)ccc2Cl)nc1C(F)(F)F [Example 202, 2-(2,5-Dichlorophenylamino)-4-trifluoromethyl-pyrimidine-5-carboxylic acid cyclobutylmethyl-amide] | 20 to 300 | > 50 |  |
| O=C(NCC1CCC1)c1cnc(Nc2c(Cl)cccc2Cl)nc1C(F)(F)F [Example 203, 2-(2,6-Dichlorophenylamino)-4-trifluoromethyl-pyrimidine-5-carboxylic acid cyclobutylmethyl-amide] | 20 to 300 | > 50 |  |
| O=C(NCC1CCC1)c1cnc(Nc2ccc(Cl)c(Cl)c2)nc1C(F)(F)F [Example 204, 2-(3,4-Dichlorophenylamino)-4-trifluoromethyl-pyrimidine-5-carboxylic acid cyclobutylmethyl-amide] | 20 to 300 | > 50 |  |
| COc1cccc(Nc2ncc(C(=O)NCC3CCC3)c(C(F)(F)F)n2)c1 [Example 205, 2-(3-Methoxyphenylamino)-4-trifluoromethyl-pyrimidine-5-carboxylic acid cyclobutylmethyl-amide] | 20 to 300 | > 50 |  |
| O=C(NCC1CCC1)c1cnc(Nc2cc(Cl)cc(Cl)c2)nc1C(F)(F)F [Example 206, 2-(3,5-Dichlorophenylamino)-4-trifluoromethyl-pyrimidine-5-carboxylic acid cyclobutylmethyl-amide] | 20 to 300 | > 50 |  |
| O=C(NC1CCCC1)c1cnc(Nc2cccc(Br)c2)nc1C(F)(F)F [Example 207, 2-(3-Bromophenylamino)-4-trifluoromethyl-pyrimidine-5-carboxylic acid cyclopentylamide] | 20 to 300 | > 50 |  |
| O=C(NC1CCCC1)c1cnc(Nc2ccc(Cl)cc2Cl)nc1C(F)(F)F [Example 208, 2-(2,4-Dichlorophenylamino)-4-trifluoromethyl-pyrimidine-5-carboxylic acid cyclopentylamide] | 20 to 300 | > 50 |  |
| O=C(NC1CC1)c1cnc(Nc2cccc(Cl)c2)nc1C(F)(F)F [Example 209, 2-(3-Chlorophenylamino)-4-trifluoromethyl-pyrimidine-5-carboxylic acid cyclopropylamide] | 20 to 300 | > 50 |  |
| CN(CC1CCOCC1)C(=O)c1cnc(Nc2cccc(Cl)c2)nc1C(F)(F)F [Example 211, 2-(3-Chlorophenylamino)-4-trifluoromethyl-pyrimidine-5-carboxylic acid methyl-(tetrahydro-pyran-4-ylmethyl)-amide] | 20 to 300 | > 50 |  |
| O=C(NCC1CCOCC1)c1cnc(Nc2cccc(Cl)c2F)nc1C(F)(F)F [Example 212, 2-(2-Fluoro-3-chloro-phenylamino)-4-trifluoromethyl-pyrimidine-5-carboxylic acid (tetrahydro-pyran-4-ylmethyl)-amide] |  |  | 20 to 300 |
| O=C(NCC1CCOCC1)c1cnc(Nc2cc(Cl)ccc2F)nc1C(F)(F)F [Example 213, 2-(2-Fluoro-5-chloro-phenylamino)-4-trifluoromethyl-pyrimidine-5-carboxylic acid (tetrahydro-pyran-4-ylmethyl)-amide] | 20 to 300 | > 50 |  |
